Measurements as given in EP1247803A2, “Indolinone compounds suitable for modulation of protein kinases” (Sugen, Inc., priority 1996, dated 1998).

biological target: T1, EGFR (Homo sapiens, UniProt P00533); assay: EGFR ELISA assay (in vitro kinase activity, EGFR captured from A431 cell lysate); assay type: biochemical; set-up: concentration or dose not given beside the values
T1 construct: Add 7 ug A431 cell lysate per well (EGFR source); endogenous in cells; host or cells: A431
Method in brief: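 Receptor autophosphorylation was read by ELISA: anti-phosphotyrosine serum and an HRP-linked secondary with ABTS substrate, absorbance at 410 nm (reference 630 nm). The reaction ran 5 min with 3 µM ATP and 5 mM MnCl2 and was quenched by 20 mM EDTA. Compounds were first incubated 30 min with antibody-captured EGFR from A431 cell lysate.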

T1 sequence (P00533 25-1210): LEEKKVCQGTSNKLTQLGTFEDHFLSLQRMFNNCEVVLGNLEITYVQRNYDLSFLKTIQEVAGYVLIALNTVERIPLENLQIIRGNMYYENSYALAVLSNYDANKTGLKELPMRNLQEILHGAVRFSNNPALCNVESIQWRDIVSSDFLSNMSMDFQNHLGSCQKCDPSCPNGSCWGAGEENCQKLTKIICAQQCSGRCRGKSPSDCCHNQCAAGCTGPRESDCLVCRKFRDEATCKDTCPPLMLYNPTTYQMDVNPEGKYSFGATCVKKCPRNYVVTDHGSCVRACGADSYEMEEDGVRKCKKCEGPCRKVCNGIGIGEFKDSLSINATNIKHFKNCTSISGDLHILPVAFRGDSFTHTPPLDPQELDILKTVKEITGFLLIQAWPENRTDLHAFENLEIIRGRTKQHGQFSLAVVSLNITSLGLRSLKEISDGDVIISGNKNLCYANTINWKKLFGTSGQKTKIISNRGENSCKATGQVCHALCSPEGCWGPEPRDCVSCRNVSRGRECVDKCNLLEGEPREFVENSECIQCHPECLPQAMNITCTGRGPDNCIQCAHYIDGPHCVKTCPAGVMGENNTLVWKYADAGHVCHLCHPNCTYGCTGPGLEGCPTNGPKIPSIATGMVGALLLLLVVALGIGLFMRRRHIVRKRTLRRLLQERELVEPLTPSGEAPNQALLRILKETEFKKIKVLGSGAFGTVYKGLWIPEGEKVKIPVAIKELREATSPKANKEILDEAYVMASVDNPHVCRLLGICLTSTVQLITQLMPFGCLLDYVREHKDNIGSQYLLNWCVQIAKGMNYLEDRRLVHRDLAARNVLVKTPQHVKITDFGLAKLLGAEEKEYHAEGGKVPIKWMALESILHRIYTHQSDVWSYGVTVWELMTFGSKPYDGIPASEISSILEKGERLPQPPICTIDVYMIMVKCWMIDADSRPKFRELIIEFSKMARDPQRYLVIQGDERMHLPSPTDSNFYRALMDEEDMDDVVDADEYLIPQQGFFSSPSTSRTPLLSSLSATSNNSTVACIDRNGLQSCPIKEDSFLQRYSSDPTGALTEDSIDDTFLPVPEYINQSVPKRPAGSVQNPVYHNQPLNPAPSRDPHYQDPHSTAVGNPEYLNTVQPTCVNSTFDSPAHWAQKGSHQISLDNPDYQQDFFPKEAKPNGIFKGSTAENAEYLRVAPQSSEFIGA

First: COc1cc(OC)c(C=C2C(=O)Nc3ccc(CCCl)cc32)c(OC)c1 [10719/G06]
Second: COc1ccc(C=C2C(=O)Nc3ccc(CCCl)cc32)c(OC)c1 [10719/G04]
The “Biochem EGFR %Inhibition” value of the first is lower: -45.7% for the first, -4.7% for the second.

Going from `CCc1c(C)[nH]c(C=C2C(=O)Nc3ccc(CCCl)cc32)c1C` [10719/G05] to `CCc1c(C)[nH]c(C=C2C(=O)Nc3ccc(S(=O)(=O)NC)cc32)c1C` [10719/D05], the “Biochem EGFR %Inhibition” value rises from 4.0% to 18.5%.

First: O=C1Nc2c(Br)cc(Br)cc2C1=Cc1ccccc1O [10720/A05]
Second: O=C1Nc2c(Br)cc(Br)cc2C1=Cc1ccccc1 [10720/A06]
The “Biochem EGFR %Inhibition” value of the first is lower: -4.4% for the first, 44.7% for the second.

First: O=C1Nc2ccc(CCCl)cc2C1=Cc1ccc(O)cc1 [10719/G07]
Second: CN(C)c1ccc(C=C2C(=O)Nc3ccc(CCCl)cc32)cc1 [10719/G08]
The “Biochem EGFR %Inhibition” value of the first is lower: -8.1% for the first, 65.4% for the second.

Compared with `CNS(=O)(=O)c1ccc2c(c1)C(=Cc1ccc(O)cc1)C(=O)N2` [10719/D07], `CNS(=O)(=O)c1ccc2c(c1)C(=Cc1ccc(N(C)C)cc1)C(=O)N2` [10719/D08] is lower in “Biochem EGFR %Inhibition” value: 13.7% for the first, -12.2% for the second.

Compared with `COc1ccc(C=C2C(=O)Nc3ccc(S(=O)(=O)N4CCOCC4)cc32)c(OC)c1` [10719/F04], `COc1cc(OC)c(C=C2C(=O)Nc3ccc(S(=O)(=O)N4CCOCC4)cc32)c(OC)c1` [10719/F06] is lower in “Biochem EGFR %Inhibition” value: -6.0% for the first, -26.0% for the second.

First: Cc1ccc(C=C2C(=O)Nc3ccc(I)cc32)s1 [10717/B07]
Second: CSc1ccc(C=C2C(=O)Nc3ccc(I)cc32)s1 [10720/B07]
The “Biochem EGFR %Inhibition” value of the first is higher: 58.3% for the first, 52.0% for the second.

Going from `Cc1cc(O)cc(O)c1C=C1C(=O)Nc2ccc(Br)c(C)c21` [10720/C08] to `Cc1cc(O)cc(O)c1C=C1C(=O)Nc2ccc(I)cc21` [10720/B08], the “Biochem EGFR %Inhibition” value falls from -1.1% to -12.6%.

First: O=C1Nc2ccc(I)cc2C1=Cc1ccc(Br)cc1 [10717/B08]
Second: O=C1Nc2ccc(I)cc2C1=Cc1ccccc1 [10720/B06]
The “Biochem EGFR %Inhibition” value of the first is higher: 60.5% for the first, 21.2% for the second.

Compared with `O=C1Nc2ccc(S(=O)(=O)N3CCOCC3)cc2C1=Cc1ccc(F)cc1C(F)(F)F` [10719/F11], `O=C1Nc2ccc(S(=O)(=O)N3CCOCC3)cc2C1=Cc1ccc(F)cc1Cl` [10719/F09] is higher in “Biochem EGFR %Inhibition” value: -66.3% for the first, -17.7% for the second.

Going from `O=C1Nc2ccc(I)cc2C1=Cc1ccc[nH]1` [10717/B09] to `O=C1Nc2ccc(I)cc2C1=Cc1ncc[nH]1` [10720/B11], the “Biochem EGFR %Inhibition” value falls from 78.3% to 22.4%.

Going from `O=C1Nc2ccc(I)cc2C1=Cc1c(F)cc(F)cc1F` [10720/B02] to `CNS(=O)(=O)c1ccc2c(c1)C(=Cc1c(F)cc(F)cc1F)C(=O)N2` [10720/D02], the “Biochem EGFR %Inhibition” value falls from 18.4% to 11.1%.

Compared with `Cc1c(Br)ccc2c1C(=Cc1ccccc1)C(=O)N2` [10720/C06], `Cc1c(Br)ccc2c1C(=Cc1ccccc1O)C(=O)N2` [10720/C05] is lower in “Biochem EGFR %Inhibition” value: -9.7% for the first, -15.3% for the second.

First: CSc1ccc(C=C2C(=O)Nc3ccc(Br)c(C)c32)s1 [10720/C07]
Second: Cc1c(Br)ccc2c1C(=Cc1cccs1)C(=O)N2 [10717/C03]
The “Biochem EGFR %Inhibition” value of the first is lower: -25.4% for the first, 18.0% for the second.

Going from `CNS(=O)(=O)c1ccc2c(c1)C(=Cc1ccc(O)c(O)c1)C(=O)N2` [10719/D03] to `CNS(=O)(=O)c1ccc2c(c1)C(=Cc1ccc(O)cc1OC)C(=O)N2` [10720/D03], the “Biochem EGFR %Inhibition” value falls from 95.7% to 0.9%.

Going from `CN(C)c1ccc(C=C2C(=O)Nc3ccc(S(=O)(=O)Nc4ccc(C(F)(F)F)cc4)cc32)cc1` [10719/E08] to `O=C1Nc2ccc(S(=O)(=O)Nc3ccc(C(F)(F)F)cc3)cc2C1=Cc1ccc(O)cc1` [10719/E07], the “Biochem EGFR %Inhibition” value falls from 36.8% to -18.4%.

Going from `CCOc1ccc(C=C2C(=O)Nc3ccc(S(=O)(=O)NC)cc32)cc1OC` [10719/D02] to `CCOc1ccc(C=C2C(=O)Nc3ccc(S(=O)(=O)N4CCOCC4)cc32)cc1OC` [10719/F02], the “Biochem EGFR %Inhibition” value rises from 9.8% to 14.8%.

Going from `O=C1Nc2ccc(CCCl)cc2C1=Cc1ccc(F)cc1Cl` [10719/G09] to `O=C1Nc2ccc(CCCl)cc2C1=Cc1ccc(F)cc1C(F)(F)F` [10719/G11], the “Biochem EGFR %Inhibition” value falls from -32.8% to -44.1%.

Compared with `CCOc1cc(C=C2C(=O)Nc3ccc(I)cc32)ccc1O` [10720/B09], `COc1ccc(C=C2C(=O)Nc3ccc(I)cc32)cc1OC` [10720/B04] is higher in “Biochem EGFR %Inhibition” value: 37.6% for the first, 50.5% for the second.

Going from `O=C1Nc2ccc(S(=O)(=O)N3CCOCC3)cc2C1=Cc1cccc([N+](=O)[O-])c1` [10719/F10] to `O=C1Nc2ccc(S(=O)(=O)N3CCOCC3)cc2C1=Cc1ccc(O)c(O)c1` [10719/F03], the “Biochem EGFR %Inhibition” value falls from -17.7% to -30.8%.

Going from `COc1cc(O)ccc1C=C1C(=O)Nc2ccc(I)cc21` [10720/B03] to `COc1ccc(O)c(C=C2C(=O)Nc3ccc(I)cc32)c1` [10720/B10], the “Biochem EGFR %Inhibition” value rises from 32.3% to 50.2%.

First: O=C1Nc2ccc(CCCl)cc2C1=Cc1ccc(O)c(O)c1 [10719/G03]
Second: O=C1Nc2ccc(CCCl)cc2C1=Cc1cccc([N+](=O)[O-])c1 [10719/G10]
The “Biochem EGFR %Inhibition” value of the first is higher: 89.5% for the first, -27.6% for the second.

Compared with `CNS(=O)(=O)c1ccc2c(c1)C(=Cc1ccc(F)cc1Cl)C(=O)N2` [10719/D09], `CNS(=O)(=O)c1ccc2c(c1)C(=Cc1ccc(OC)cc1OC)C(=O)N2` [10719/D04] is higher in “Biochem EGFR %Inhibition” value: -3.1% for the first, 15.3% for the second.

Compared with `CSc1ccc(C=C2C(=O)Nc3c(Br)cc(Br)cc32)s1` [10720/A07], `COc1ccc(O)c(C=C2C(=O)Nc3c(Br)cc(Br)cc32)c1` [10720/A10] is lower in “Biochem EGFR %Inhibition” value: 42.5% for the first, -2.7% for the second.

Going from `CCOc1ccc(C=C2C(=O)Nc3ccc(CCCl)cc32)cc1OC` [10719/G02] to `CCOc1ccc(C=C2C(=O)Nc3ccc(S(=O)(=O)Nc4ccc(C(F)(F)F)cc4)cc32)cc1OC` [10719/E02], the “Biochem EGFR %Inhibition” value rises from -12.2% to 40.0%.

Going from `O=C1Nc2ccc(S(=O)(=O)Nc3ccc(C(F)(F)F)cc3)cc2C1=Cc1ccc(O)c(O)c1` [10719/E03] to `O=C1Nc2ccc(S(=O)(=O)Nc3ccc(C(F)(F)F)cc3)cc2C1=Cc1cccc([N+](=O)[O-])c1` [10719/E10], the “Biochem EGFR %Inhibition” value falls from 73.0% to -32.4%.

First: O=C1Nc2ccc(S(=O)(=O)N3CCOCC3)cc2C1=Cc1ccc(O)cc1 [10719/F07]
Second: CN(C)c1ccc(C=C2C(=O)Nc3ccc(S(=O)(=O)N4CCOCC4)cc32)cc1 [10719/F08]
The “Biochem EGFR %Inhibition” value of the first is lower: 20.1% for the first, 90.9% for the second.

Compared with `COc1cccc(O)c1C=C1C(=O)Nc2ccc(I)cc21` [10717/B10], `O=C1Nc2ccc(I)cc2C1=Cc1ccccc1O` [10720/B05] is higher in “Biochem EGFR %Inhibition” value: 16.1% for the first, 58.4% for the second.

First: CNS(=O)(=O)c1ccc2c(c1)C(=Cc1cccc([N+](=O)[O-])c1)C(=O)N2 [10719/D10]
Second: Cc1c(Br)ccc2c1C(=Cc1cccc([N+](=O)[O-])c1)C(=O)N2 [10719/C10]
The “Biochem EGFR %Inhibition” value of the first is lower: -11.8% for the first, 10.7% for the second.

First: O=C1Nc2ccc(S(=O)(=O)Nc3ccc(C(F)(F)F)cc3)cc2C1=Cc1ccc(F)cc1C(F)(F)F [10719/E11]
Second: O=C1Nc2ccc(S(=O)(=O)Nc3ccc(C(F)(F)F)cc3)cc2C1=Cc1ccc(F)cc1Cl [10719/E09]
The “Biochem EGFR %Inhibition” value of the first is lower: -51.8% for the first, -33.1% for the second.

First: COc1ccc(O)c(C=C2C(=O)Nc3ccc(Br)c(C)c32)c1 [10720/C10]
Second: COc1cc(O)ccc1C=C1C(=O)Nc2ccc(Br)c(C)c21 [10720/C03]
The “Biochem EGFR %Inhibition” value of the first is higher: 2.0% for the first, 0.9% for the second.

Going from `COc1ccc(C=C2C(=O)Nc3c(Br)cc(Br)cc32)cc1OC` [10720/A04] to `CCOc1cc(C=C2C(=O)Nc3c(Br)cc(Br)cc32)ccc1O` [10720/A09], the “Biochem EGFR %Inhibition” value rises from -1.8% to 8.6%.

First: COc1cc(OC)c(C=C2C(=O)Nc3ccc(S(=O)(=O)Nc4ccc(C(F)(F)F)cc4)cc32)c(OC)c1 [10719/E06]
Second: COc1ccc(C=C2C(=O)Nc3ccc(S(=O)(=O)Nc4ccc(C(F)(F)F)cc4)cc32)c(OC)c1 [10719/E04]
The “Biochem EGFR %Inhibition” value of the first is lower: -42.0% for the first, -7.4% for the second.

Going from `CCc1c(C)[nH]c(C=C2C(=O)Nc3ccc(S(=O)(=O)N4CCOCC4)cc32)c1C` [10719/F05] to `CCc1c(C)[nH]c(C=C2C(=O)Nc3ccc(S(=O)(=O)Nc4ccc(C(F)(F)F)cc4)cc32)c1C` [10719/E05], the “Biochem EGFR %Inhibition” value falls from 35.0% to 21.2%.

Going from `Cc1c(Br)ccc2c1C(=Cc1ncc[nH]1)C(=O)N2` [10720/C11] to `O=C1Nc2c(Br)cc(Br)cc2C1=Cc1ncc[nH]1` [10720/A11], the “Biochem EGFR %Inhibition” value falls from -21.9% to -23.2%.

First: Cc1[nH]c(C=C2C(=O)Nc3ccc(I)cc32)c(Br)c1Br [10717/B11]
Second: Cc1c(Br)ccc2c1C(=Cc1c(F)cc(F)cc1F)C(=O)N2 [10720/C02]
The “Biochem EGFR %Inhibition” value of the first is higher: 82.7% for the first, 23.5% for the second.

Compared with `Cc1c(Br)ccc2c1C(=Cc1ccc(F)cc1C(F)(F)F)C(=O)N2` [10719/C11], `CCOc1ccccc1C=C1C(=O)Nc2ccc(Br)c(C)c21` [10717/C02] is higher in “Biochem EGFR %Inhibition” value: -25.7% for the first, -0.4% for the second.

Compared with `CNS(=O)(=O)c1ccc2c(c1)C(=Cc1c(OC)cc(OC)cc1OC)C(=O)N2` [10719/D06], `COc1ccc(C=C2C(=O)Nc3ccc(Br)c(C)c32)cc1OC` [10720/C04] is lower in “Biochem EGFR %Inhibition” value: -12.2% for the first, -13.1% for the second.

Compared with `O=C1Nc2c(Br)cc(Br)cc2C1=Cc1c(F)cc(F)cc1F` [10720/A02], `Cc1cc(O)cc(O)c1C=C1C(=O)Nc2c(Br)cc(Br)cc21` [10720/A08] is lower in “Biochem EGFR %Inhibition” value: 11.3% for the first, -23.2% for the second.

First: CCOc1cc(C=C2C(=O)Nc3ccc(Br)c(C)c32)ccc1O [10720/C09]
Second: COc1cc(O)ccc1C=C1C(=O)Nc2c(Br)cc(Br)cc21 [10720/A03]
The “Biochem EGFR %Inhibition” value of the first is higher: 44.7% for the first, -5.3% for the second.
